Experimental data: patent US8552018B2, “Substituted tricyclic compounds as protein kinase inhibitors” (Arizona Board of Regents on behalf of the University of …, priority 2003, dated 2013)

What was measured:
[1] = system: pancreatic cancer cell lines MIAPaCa-2 and PANC-1; experiment: Cancer cell cytotoxicity assay, range over both pancreatic lines; type: cell-based; details: potency order
Method: (§1) To validate the hypothesis that the designed c-kit/PDGFR tyrosine kinase inhibitors mediate GIST882 cell killing and PDGFR-mediated cell killing of pancreatic cancer cell lines (CFPAC-1, PANC-1 and MIA PaCa-2), an in vitro cytotoxicity assay was performed. The GIST882 cell line used in this study has a c-kit gain-of-function mutation (K642E). […] First the cells were cultured. GIST882 cells were provided by Dr. Jonathan A. Fletcher (Dana-Farber Cancer Institute, Boston, Mass.). PANC-1 and MIAPaCa-2 cells were provided by Dr. Daniel Von Hoff (Arizona Cancer Center, Tucson, Ariz.). […] All the cell lines were incubated in a humidified incubator at 37° C. with 5% CO2 atmosphere.
After incubation for 4 days at 37° C. in a humidified incubator, the cells were fixed with 10% Trichloroacetic acid solution (Catalog No. 490-10, Sigma). Subsequently, they were labeled with 0.04% Sulforhodamine B (S9012, Sigma) in 1% acetic acid. […] The absorbance of each well was read on a plate reader (Wallac Vector^2, PerkinElmer) at the wavelength of 570 nm. Data were expressed as the percentage of survival of control calculated from the absorbance corrected for background absorbance. The surviving percent of cells was determined by dividing the mean absorbance values of the […] by the mean absorbance values of the control and multiplying by 100.

[2] = target: c-Kit (Homo sapiens, UniProt P10721); experiment: Autophosphorylation assay with γ-32P-ATP; type: biochemical; details: FIG. 28A
Chain of c-Kit (P10721 26-976): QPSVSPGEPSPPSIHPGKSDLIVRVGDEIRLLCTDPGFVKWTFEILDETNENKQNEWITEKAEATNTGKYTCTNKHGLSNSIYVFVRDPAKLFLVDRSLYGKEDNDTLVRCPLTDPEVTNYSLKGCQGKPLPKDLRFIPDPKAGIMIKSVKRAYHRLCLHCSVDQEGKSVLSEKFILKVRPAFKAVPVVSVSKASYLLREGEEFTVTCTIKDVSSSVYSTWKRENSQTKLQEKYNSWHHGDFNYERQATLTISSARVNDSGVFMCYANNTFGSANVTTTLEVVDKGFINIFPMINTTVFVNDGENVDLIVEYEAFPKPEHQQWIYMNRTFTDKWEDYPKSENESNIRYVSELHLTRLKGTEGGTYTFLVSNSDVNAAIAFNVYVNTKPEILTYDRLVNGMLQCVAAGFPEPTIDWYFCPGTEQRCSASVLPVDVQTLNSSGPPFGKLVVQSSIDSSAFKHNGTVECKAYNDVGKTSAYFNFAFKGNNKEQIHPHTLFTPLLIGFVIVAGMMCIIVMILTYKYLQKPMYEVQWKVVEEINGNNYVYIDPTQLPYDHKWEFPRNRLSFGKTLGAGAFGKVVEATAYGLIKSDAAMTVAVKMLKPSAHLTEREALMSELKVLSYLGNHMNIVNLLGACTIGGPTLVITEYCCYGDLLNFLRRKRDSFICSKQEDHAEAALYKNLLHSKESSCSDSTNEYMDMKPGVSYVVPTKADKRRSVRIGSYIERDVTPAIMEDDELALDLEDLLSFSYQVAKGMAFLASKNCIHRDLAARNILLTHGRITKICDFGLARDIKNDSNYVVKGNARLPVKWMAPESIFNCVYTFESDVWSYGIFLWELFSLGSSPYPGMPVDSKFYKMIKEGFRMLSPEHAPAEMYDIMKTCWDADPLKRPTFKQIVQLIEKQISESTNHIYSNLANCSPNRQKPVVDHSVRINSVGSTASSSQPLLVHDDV
Method: Enzymes were incubated with the appropriate concentration of inhibitor and radiolabeled γ-^32P-ATP. After 30 minutes, the reaction mixtures were electrophoresed on an acrylamide gel and autophosphorylation, quantitated by the amount of radioactivity incorporated into the enzyme, was assayed.

[3] = system: GIST882 cell line; experiment: Cancer cell cytotoxicity assay (sulforhodamine B); type: cell-based
Method: as §1
(§2) After incubation for 4 days at 37° C. in a humidified incubator, the cells were fixed with 10% Trichloroacetic acid solution (Catalog No. 490-10, Sigma). Subsequently, they were labeled with 0.04% Sulforhodamine B (S9012, Sigma) in 1% acetic acid. After multiple washes to remove excess dye, 100 μl of 50 mM Tris solution was added to each well in order to dissolve the dye. The absorbance of each well was read on a plate reader (Wallac Vector^2, PerkinElmer) at the wavelength of 570 nm. Data were expressed as the percentage of survival of control calculated from the absorbance corrected for background absorbance. The surviving percent of cells was determined by dividing the mean absorbance values of the […] by the mean absorbance values of the control and multiplying by 100.

[4] = system: GIST882 cell line; experiment: GIST882 cell growth assay (Cell-Titer-Glo); type: cell-based
Method: (§3) Briefly, cells are seeded into 96-well, tissue-culture treated, opaque white plates (Thermo Electron, Vantaa, Finland), at between 5000 and 7500 cells per well, depending on the speed of cell proliferation, in 100 μl of appropriate growth medium (determined by the ATCC). Cells are then exposed to the appropriate concentration of drug or an equal amount of DMSO (drug diluent) and allowed to grow in its presence for 96 hours. Following this, 100 μl of Cell-Titer-Glo reagent (Promega, Inc., Madison, Wis.) is added to each well. Plates are then shaken for 2 minutes at room temperature to allow for cell lysis and incubated for 10 minutes to stabilize the luminescent signal. Similar to the Kinase-Glo assay reagent, this reagent contains both luciferase enzyme and its substrate luciferin. Luciferase, activated by ATP in the cell lysate, catalyzes the conversion of luciferin to oxyluciferin, a reaction which produces light. The amount of light produced is proportionate to the amount of ATP in the cell lysate, which is itself proportional to cell number and gives an index of cellular proliferation.
as §3, with “Various compounds of the invention, including (IV-1-3) (also referred to as HPK16), (III-1-3) (also referred to as HPK56), (III-1-4) (also referred to as HPK57), (III-1-5) (also referred to as HPK59), and (II-2-7) (also referred to as HPK61) were tested for activity against GIST tumor cells using the GIST882 cell line. Briefly,” for “Briefly,”

[5] = system: PANC-1 cells; experiment: Cancer cell cytotoxicity assay (sulforhodamine B); type: cell-based; details: Homo sapiens, 96 h; PANC-1, 4 days; read-out: IC50 PDGFR PANC-1
Method: To validate the hypothesis that the designed c-kit/PDGFR tyrosine kinase inhibitors mediate GIST882 cell killing and PDGFR-mediated cell killing of pancreatic cancer cell lines (CFPAC-1, PANC-1 and MIA PaCa-2), an in vitro cytotoxicity assay was performed. The GIST882 cell line used in this study has a c-kit gain-of-function mutation (K642E). The assay utilized the Cell Titer 965 Non-Radioactive Cell Proliferation Assay (Promega Corp., Madison, Wis.). First the cells were cultured. GIST882 cells were provided by Dr. Jonathan A. Fletcher (Dana-Farber Cancer Institute, Boston, Mass.). PANC-1 and MIAPaCa-2 cells were provided by Dr. Daniel Von Hoff (Arizona Cancer Center, Tucson, Ariz.). GIST882 cells were cultured in RPMI 1640 medium (Cat #21870-076, Invitrogen Corporation) supplemented with 300 mg/L L-glutamine, 100 unit/ml penicillin, 100 μg/ml streptomycin and 15% fetal bovine serum. PANC-1 and MIAPaCa-2 cells were maintained in RPMI 1640 medium (cat #10-040, Mediatech, Inc.) supplemented with 100 unit/ml penicillin, 100 μg/ml streptomycin and 10% fetal bovine serum. All the cell lines were incubated in a humidified incubator at 37° C. with 5% CO2 atmosphere.
as §2, with “Cells were plated at a density of 2000 to 10000 cells per well, depending on their growth rate, in 0.1 mL medium on day 0 in 96-well Falcon microtiter plates (#3072, Becton-Dickinson Labware, Lincoln Park, N.J.). On day 1, 10 μL of serial dilutions of the individual compounds were added to the plates in replicates of 4. After incubation” for “After incubation”

For COc1cc2[nH]c3ncnc(N4CCN(C(=S)NCc5ccc6c(c5)OCO6)CC4)c3c2cc1OC [HPK61, 4-(6,7-Dimethoxy-9H-1,3,9-triaza-fluoren-4-yl)-piperazine-1-carbothioic acid (benzo[1,3]dioxol-5-ylmethyl)-amide], the IC50 [1] was 15.5 to 16 µM, the “inhibition of c-Kit autophosphorylation (in words)” value [2] was “dose-dependent” and the “cells alive at day 4” value ([3]; GIST882, day 4) was 5%. For the same molecule, the IC50 ([3]; Homo sapiens, 96 h, GIST882, 4 days, read-out: IC50 c-kit GIST882) was 0.45 µM, the “inhibitory activity in GIST882 cell line (in words)” value ([4]; FIG. 29, 96 hours) was “highest inhibitory activity” and the IC50 ([4]; Homo sapiens, GIST882, 96 hours) was 0.45 µM. It also gave an IC50 [5] of 16 µM.
